In patent publication US9365562B2, “1,3 substituted azetidine PDE10 inhibitors” (Merck Sharp & Dohme Corp., priority 2011, dated 2016) one finds Ki data, which are given here for 24 compounds.

human PDE10A2, sequence (Q9Y233 267-1055): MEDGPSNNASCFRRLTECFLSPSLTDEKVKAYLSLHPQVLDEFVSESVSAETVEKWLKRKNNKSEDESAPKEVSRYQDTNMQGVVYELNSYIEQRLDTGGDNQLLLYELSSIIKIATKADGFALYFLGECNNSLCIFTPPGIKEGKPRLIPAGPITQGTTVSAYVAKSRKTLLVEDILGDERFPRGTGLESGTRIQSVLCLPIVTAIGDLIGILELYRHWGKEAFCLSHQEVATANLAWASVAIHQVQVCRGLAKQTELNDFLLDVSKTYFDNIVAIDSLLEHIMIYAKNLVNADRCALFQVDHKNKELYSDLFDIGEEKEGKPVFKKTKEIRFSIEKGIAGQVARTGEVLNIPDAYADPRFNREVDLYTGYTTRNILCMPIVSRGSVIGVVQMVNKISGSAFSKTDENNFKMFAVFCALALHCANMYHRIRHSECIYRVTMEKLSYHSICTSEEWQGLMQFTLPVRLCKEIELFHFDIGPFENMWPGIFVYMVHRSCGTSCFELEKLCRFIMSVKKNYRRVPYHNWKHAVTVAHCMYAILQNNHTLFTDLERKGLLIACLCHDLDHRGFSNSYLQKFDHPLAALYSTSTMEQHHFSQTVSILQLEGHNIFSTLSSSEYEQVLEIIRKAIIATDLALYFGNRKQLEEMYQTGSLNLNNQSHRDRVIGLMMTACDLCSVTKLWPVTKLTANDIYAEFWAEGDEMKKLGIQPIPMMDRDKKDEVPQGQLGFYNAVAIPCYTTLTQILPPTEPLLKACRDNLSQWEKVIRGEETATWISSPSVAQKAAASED

The target in the assay is human PDE10A2 (Homo sapiens (Human), UniProt Q9Y233). Description: PDE10 fluorescence polarization (IMAP FP) inhibition assay. The settings on record: apparent inhibition constant, FAM-labeled cAMP substrate 50 nM, room temperature. The assay is classed as biochemical. The protocol:
The activity of the compounds in accordance with the present invention as PDE10 inhibitors may be readily determined without undue experimentation using a fluorescence polarization (FP) methodology that is well known in the art (Huang, W., et al., J. Biomol Screen, 2002, 7: 215).
In a typical experiment the PDE10 inhibitory activity of the compounds of the present invention was determined in accordance with the following experimental method. PDE10A2 was amplified from human fetal brain cDNA (Clontech, Mountain View, Calif.) using a forward primer corresponding to nucleotides 56-77 of human PDE10A2 (Accession No. AF127480, Genbank Identifier 4894716), containing a Kozak consensus sequence, and a reverse primer corresponding to nucleotides 2406-2413 of human PDE10A2 (Accession No. AF127480, Genbank Identifier 4894716). Amplification with Easy-A polymerase (Stratagene, La Jolla, Calif.) was 95° C. for 2 minutes followed by thirty three cycles of 95° C. for 40 seconds, 55° C. for 30 seconds, and 72° C. for 2 minutes 48 seconds. Final extension was 72° C. for 7 minutes. The PCR product was TA cloned into pcDNA3.2-TOPO (Invitrogen, Carlsbad, Calif.) according to standard protocol. AD293 cells with 70-80% confluency were transiently transfected with human PDE10A2/pcDNA3.2-TOPO using Lipofectamine 2000 according to manufacturer specifications (Invitrogen, Carlsbad, Calif.). Cells were harvested 48 hours post-transfection and lysed by sonication (setting 3, 10×5 sec pulses) in a buffer containing 20 mM HEPES, 1 mM EDTA and protease inhibitor cocktail (Roche). Lysate was collected by centrifugation at 75,000×g for 20 minutes. Supernatant containing the cytoplasmic fraction was used for evaluation of PDE10A2 activity. The fluorescence polarization assay for cyclic nucleotide phosphodiesterases was performed using an IMAP® FP kit supplied by Molecular Devices, Sunnyvale, Calif. (product # R8139). IMAP® technology has been applied previously to phosphodiesterase assays (Huang, W., et al., J. Biomol Screen, 2002, 7: 215). Assays were performed at room temperature in 384-well microtiter plates with an incubation volume of 20.2 μL. Solutions of test compounds were prepared in DMSO and serially diluted with DMSO to yield 8 μL of each of 10 solutions differing by 3-fold in concentration, at 32 serial dilutions per plate. 100% inhibition is determined using a known PDE10 inhibitor, which can be any compound that is present at 5,000 times its Ki value in the assay described as follows, such as papaverine (see Siuciak, et al. Neuropharmacology (2006) 51:386-396; Becker, et al. Behav Brain Res (2008) 186(2):155-60; Threlfell, et al., J Pharmacol Exp Ther (2009) 328(3):785-795), 2-{4-[pyridin-4-yl-1-(2,2,2-trifluoroethyl)-1H-pyrazol-3-yl]phenoxymethyl}quinoline succinic acid or 2-[4-(1-methyl-4-pyridin-4-yl-1H-pyrazol-3-yl)-phenoxymethyl]quinoline succinic acid (see Schmidt, et al. J Pharmacol Exp Ther (2008) 325:681-690; Threlfell, et al., J Pharmacol Exp Ther (2009) 328(3): 785-795). 0% of inhibition is determined by using DMSO (1% final concentrations). A Labcyte Echo 555 (Labcyte, Sunnyvale, Calif.) is used to dispense […] from each well of the titration plate to the 384 well assay plate. A solution of enzyme (1/7000 dilution from aliquots; sufficient to produce 20% substrate conversion) and a separate solution of FAM-labeled cAMP PDE from Molecular Devices (product # R7506), at a final concentration of 50 nM are made in the assay buffer (10 mM Tris HCl, pH 7.2, 10 mM MgCl2, 0.05% NaN3 0.01% Tween-20, and 1 mM DTT). The enzyme is added to the assay plates by the addition of 10 μL of enzyme solution to each well, shaken to mix and incubated at room temperature for 60 minutes. The substrate is then added to the assay plates by the addition of 10 μL of substrate solution to each well, shaken to mix, and incubated at room temperature for 60 minutes. […]
Regarding `Cc1nc(N2CC(c3nc4cccc(F)c4n3C)C2)cc(-n2nc(C)nc2C)n1` [Example 123, 2-(1-(6-(3,5-dimethyl-1H-1,2,4-triazol-1-yl)-2-methylpyrimidin-4-yl)azetidin-3-yl)-7-fluoro-1-methyl-1H-benzo[d]imidazole], the Ki stood at 7.1 nM.

In the case of `Cc1nc(N2CC(c3nc4ccccc4n3C)C2)cc(-n2nc(C)nc2C2CC(=O)N(C)C2)n1` (stereo not drawn) [Example 47, 1-methyl-4-(3-methyl-1-(2-methyl-6-(3-(1-methyl-1H-benzo[d]imidazol-2-yl)azetidin-1-yl)pyrimidin-4-yl)-1H-1,2,4-triazol-5-yl)pyrrolidin-2-one], the Ki was 3.9 nM.

Take `Cc1nc(C)n(-c2cc(N3CC(c4nc5ccccc5n4C)C3)nc(OCc3ccnn3C)n2)n1` [Example 73, 2-(1-(6-(3,5-dimethyl-1H-1,2,4-triazol-1-yl)-2-((1-methyl-1H-pyrazol-5-yl)methoxy)pyrimidin-4-yl)azetidin-3-yl)-1-methyl-1H-benzo[d]imidazole]: the Ki was determined as 0.13 nM.

As for `Cc1nc(N2CC(c3nc4ccccc4n3C)C2)cc(-n2nc(C)nc2-c2ccc(C#N)cc2)n1` [Example 54, 4-(3-methyl-1-(2-methyl-6-(3-(1-methyl-1H-benzo[d]imidazol-2-yl)azetidin-1-yl)pyrimidin-4-yl)-1H-1,2,4-triazol-5-yl)benzonitrile], the Ki was 16 nM.

In the case of `COCc1nc(C)nn1-c1cc(N2CC(c3nc4ccccc4n3C)C2)nc(C2CC2)n1` [Example 65, 2-(1-(2-cyclopropyl-6-(5-(methoxymethyl)-3-methyl-1H-1,2,4-triazol-1-yl)pyrimidin-4-yl)azetidin-3-yl)-1-methyl-1H-benzo[d]imidazole], the Ki worked out at 2.5 nM.

Consider `CCc1nc(CC)n(-c2cc(N3CC(c4nc5ccccc5n4C)C3)nc(C)n2)n1` [Example 22, 2-(1-(6-(3,5-diethyl-1H-1,2,4-triazol-1-yl)-2-methylpyrimidin-4-yl)azetidin-3-yl)-1-methyl-1H-benzo[d]imidazole], for which the Ki came to 3.3 nM.

Regarding `Cc1nc(-c2ncco2)cc(N2CC(c3nc4ccccc4n3C)C2)n1` [Example 104, 2-(2-methyl-6-(3-(1-methyl-1H-benzo[d]imidazol-2-yl)azetidin-1-yl)pyrimidin-4-yl)oxazole], the Ki amounted to 20 nM.

Turning to `COC(=O)CCc1nc(C)nn1-c1cc(N2CC(c3nc4ccccc4n3C)C2)nc(C)n1` [Example 43, methyl 3-(3-methyl-1-(2-methyl-6-(3-(1-methyl-1H-benzo[d]imidazol-2-yl)azetidin-1-yl)pyrimidin-4-yl)-1H-1,2,4-triazol-5-yl)propanoate], the Ki worked out at 0.49 nM.

For `Cc1nc(N2CC(c3nc4ccc(F)cc4[nH]3)C2)cc(-n2nc(C)nc2C)n1` [Example 109, 2-(1-(6-(3,5-dimethyl-1H-1,2,4-triazol-1-yl)-2-methylpyrimidin-4-yl)azetidin-3-yl)-6-fluoro-1H-benzo[d]imidazole], the Ki stood at 8 nM.

As to `Cc1nc(N2CC(c3nc4ccccc4n3C)C2)cc(-n2cc(C#N)cn2)n1` [Example 17, 1-(2-methyl-6-(3-(1-methyl-1H-benzo[d]imidazol-2-yl)azetidin-1-yl)pyrimidin-4-yl)-1H-pyrazole-4-carbonitrile], the Ki worked out at 4.2 nM.

Turning to `COc1cccnc1-c1cc(N2CC(c3nc4ccccc4n3C)C2)nc(C)n1` [Example 100, 2-(1-(6-(3-methoxypyridin-2-yl)-2-methylpyrimidin-4-yl)azetidin-3-yl)-1-methyl-1H-benzo[d]imidazole], the Ki amounted to 41 nM.

As to `Cc1ccc(-c2cc(N3CC(c4nc5ccccc5n4C)C3)nc(C(F)(F)F)n2)nc1` [Example 97, 1-methyl-2-(1-(6-(5-methylpyridin-2-yl)-2-(trifluoromethyl)pyrimidin-4-yl)azetidin-3-yl)-1H-benzo[d]imidazole], the Ki was found to be 0.9 nM.

Turning to `CC(=O)c1ccnc(-c2cc(N3CC(c4nc5ccccc5n4C)C3)nc(C)n2)c1` [Example 101, 1-(2-(2-methyl-6-(3-(1-methyl-1H-benzo[d]imidazol-2-yl)azetidin-1-yl)pyrimidin-4-yl)pyridin-4-yl)ethanone], the Ki came to 31 nM.

Consider `Cc1nc(N2CC(c3nc4ccccc4n3C)C2)cc(-n2nc(C)c(C)c2C)n1` [Example 9, 1-methyl-2-(1-(2-methyl-6-(3,4,5-trimethyl-1H-pyrazol-1-yl)pyrimidin-4-yl)azetidin-3-yl)-1H-benzo[d]imidazole], for which the Ki was 0.93 nM.

Take `Cc1ccc(-c2cc(N3CC(c4nc5ccccc5n4C)C3)nc(C)n2)c(F)n1` [Example 85, 2-(1-(6-(2-fluoro-6-methylpyridin-3-yl)-2-methylpyrimidin-4-yl)azetidin-3-yl)-1-methyl-1H-benzo[d]imidazole]: the Ki turned out to be 8 nM.

Take `COc1ccccc1-c1cc(N2CC(c3nc4ccccc4n3C)C2)nc(C)n1` [Example 89, 2-(1-(6-(2-methoxyphenyl)-2-methylpyrimidin-4-yl)azetidin-3-yl)-1-methyl-1H-benzo[d]imidazole]: the Ki is 63 nM.

Regarding `Cc1nc(C)n(-c2cc(N3CC(c4nc5ccccc5n4C)C3)nc(OC(C)C)n2)n1` [Example 70, 2-{1-[6-(3,5-dimethyl-1H-1,2,4-triazol-1-yl)-2-isopropoxypyimidin-4-yl]azetidin-3-yl}-1-methyl-1H-benzimidazole], the Ki came out at 0.38 nM.

Regarding “1-(1-{2-methoxy-6-3-(1-methyl-1H-benzimidazol-2-yl)azetidin-1-yl]pyrimidin-4-yl}-1H-pyrazol-4-yl)ethanol [Example 20]”, the Ki stood at 37 nM.

Take `COCc1nc(C)nn1-c1cc(N2CC(c3nc4ccccc4n3C)C2)nc(C(F)(F)F)n1` [Example 66, 2-(1-(6-(5-(methoxymethyl)-3-methyl-1H-1,2,4-triazol-1-yl)-2-(trifluoromethyl)pyrimidin-4-yl)azetidin-3-yl)-1-methyl-1H-benzo[d]imidazole]: the Ki is 0.94 nM.

On to `Cc1ccc2nc(C3CN(c4cc(-n5nc(C)nc5C)nc(C)n4)C3)[nH]c2c1` [Example 111, 2-(1-(6-(3,5-dimethyl-1H-1,2,4-triazol-1-yl)-2-methylpyrimidin-4-yl)azetidin-3-yl)-6-methyl-1H-benzo[d]imidazole], for which the Ki came to 39 nM.

As to `CCc1nc(C)nn1-c1cc(N2CC(c3nc4ccccc4n3C)C2)nc(C)n1` [Example 35, 2-(1-(6-(5-ethyl-3-methyl-1H-1,2,4-triazol-1-yl)-2-methylpyrimidin-4-yl)azetidin-3-yl)-1-methyl-1H-benzo[d]imidazole], the Ki worked out at 0.81 nM.

As for `Cc1cn(-c2cc(N3CC(c4nc5ccccc5n4C)C3)nc(C)n2)nn1` [Example 29, 1-methyl-2-(1-(2-methyl-6-(4-methyl-1H-1,2,3-triazol-1-yl)pyrimidin-4-yl)azetidin-3-yl)-1H-benzo[d]imidazole], the Ki came to 3.1 nM.

Regarding `Cc1nc(N2CC(c3nc4ccccc4n3C)C2)cc(-n2nc(C)nc2-c2ccccc2F)n1` [Example 51, 2-(1-(6-(5-(2-fluorophenyl)-3-methyl-1H-1,2,4-triazol-1-yl)-2-methylpyrimidin-4-yl)azetidin-3-yl)-1-methyl-1H-benzo[d]imidazole], the Ki is 1.2 nM.

In the case of `Cc1nc(N2CC(c3nc4ccc(C(F)(F)F)cc4[nH]3)C2)cc(-n2nc(C)nc2C)n1` [Example 113, 2-(1-(6-(3,5-dimethyl-1H-1,2,4-triazol-1-yl)-2-methylpyrimidin-4-yl)azetidin-3-yl)-6-(trifluoromethyl)-1H-benzo[d]imidazole], the Ki is more than 75 nM.
